Measured values: PubChem BioAssay (NCI)
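Each compound was tested at five concentrations against cells in 96-well plates for 48 hours. GI50 is the concentration that inhibits growth by half. At the TGI there is no net growth.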

Assays:
Test in all cases: NCI-60 cell line screen, 48 h
[1] = test system: NCI-H460 lung
[2] = test system: HOP-92 NSCLC
[3] = test system: HCT-116 colon
[4] = test system: SW-620 colon
[5] = test system: SR leukemia
[6] = test system: NCI-H226 lung
[7] = test system: MDA-MB-435
[8] = test system: NCI-H23 lung
[9] = test system: HCC-2998 colon
[10] = test system: SF-268 CNS
[11] = test system: HS 578T breast
[12] = test system: HL-60(TB) leukemia
[13] = test system: K-562 leukemia
[14] = test system: A549 NSCLC
[15] = test system: HCT-15 colon
[16] = test system: OVCAR-8 ovarian
[17] = test system: MALME-3M melanoma
[18] = test system: HOP-62 NSCLC
[19] = test system: COLO 205 colon
[20] = test system: T-47D breast
[21] = test system: SNB-75 CNS
[22] = test system: RXF 393 renal
[23] = test system: PC-3 prostate
[24] = test system: SN12C renal
[25] = test system: SNB-19 CNS
[26] = test system: SF-295 CNS
[27] = test system: SK-MEL-5 melanoma
[28] = test system: DU-145 prostate
[29] = test system: MCF7 breast
[30] = test system: RPMI-8226 leukemia
[31] = test system: UACC-257 melanoma
[32] = test system: MDA-MB-231 breast
[33] = test system: EKVX NSCLC
[34] = test system: ACHN renal
[35] = test system: NCI-H522 lung
[36] = test system: UO-31 renal
[37] = test system: MOLT-4 leukemia
[38] = test system: BT-549 breast
[39] = test system: HT29 colon
[40] = test system: OVCAR-4 ovarian
[41] = test system: CCRF-CEM leukemia
[42] = test system: 786-0 renal
[43] = test system: OVCAR-3 ovarian
[44] = test system: SK-MEL-2 melanoma
[45] = test system: LOX IMVI melanoma
[46] = test system: KM12 colon
[47] = test system: U251 CNS
[48] = test system: TK-10 renal
[49] = test system: SK-OV-3 ovarian
[50] = test system: NCI/ADR-RES ovarian
[51] = test system: OVCAR-5 ovarian
[52] = test system: M14 melanoma
[53] = test system: SF-539 CNS
[54] = test system: UACC-62 melanoma
[55] = test system: SK-MEL-28 melanoma
[56] = test system: IGROV1 ovarian
[57] = test system: A498 renal

Structure (SMILES): COC(=O)[C@H](Cc1ccccc1)NC(=O)c1csc([C@@H](C[C@H](C(C)C)N(C)C(=O)[C@@H](NC(=O)[C@H]2CCCCN2C)C2CC2)OC(C)=O)n1
- GI50 [1]: 54.6 nM
- TGI [1]: > 25000 nM
- GI50 [2]: 137 nM
- TGI [2]: 4180 nM
- GI50 [3]: 19.7 nM
- TGI [3]: > 25000 nM
- GI50 [4]: 16.7 nM
- TGI [4]: > 25000 nM
- GI50 [5]: 5.63 nM
- TGI [5]: > 25000 nM
- GI50 [6]: 2590 nM
- TGI [6]: > 25000 nM
- GI50 [7]: 8.84 nM
- TGI [7]: 84.1 nM
- GI50 [8]: 146 nM
- TGI [8]: > 25000 nM
- GI50 [9]: 162 nM
- TGI [9]: > 25000 nM
- GI50 [10]: 111 nM
- TGI [10]: > 25000 nM
- GI50 [11]: 24.5 nM
- TGI [11]: 14500 nM
- GI50 [12]: 13.7 nM
- TGI [12]: 193 nM
- GI50 [13]: 11.8 nM
- TGI [13]: > 25000 nM
- GI50 [14]: 99.1 nM
- TGI [14]: > 25000 nM
- GI50 [15]: 91.5 nM
- TGI [15]: > 25000 nM
- GI50 [16]: 89.8 nM
- TGI [16]: > 25000 nM
- GI50 [17]: 2160 nM
- TGI [17]: > 25000 nM
- GI50 [18]: 74.9 nM
- TGI [18]: > 25000 nM
- GI50 [19]: 48 nM
- TGI [19]: 362 nM
- GI50 [20]: > 25000 nM
- TGI [20]: > 25000 nM
- GI50 [21]: 25.7 nM
- TGI [21]: > 25000 nM
- GI50 [22]: 35.1 nM
- TGI [22]: > 25000 nM
- GI50 [23]: 50.9 nM
- TGI [23]: > 25000 nM
- GI50 [24]: 103 nM
- TGI [24]: > 25000 nM
- TGI [25]: > 25000 nM
- GI50 [26]: 33.4 nM
- TGI [26]: > 25000 nM
- GI50 [27]: 52.1 nM
- TGI [27]: 3370 nM
- GI50 [28]: 21.8 nM
- TGI [28]: > 25000 nM
- GI50 [29]: 10.8 nM
- TGI [29]: > 25000 nM
- GI50 [30]: 19 nM
- TGI [30]: > 25000 nM
- GI50 [31]: > 10700 nM
- TGI [31]: > 25000 nM
- GI50 [32]: 76.3 nM
- TGI [32]: > 12500 nM
- GI50 [33]: 119 nM
- TGI [33]: > 25000 nM
- GI50 [34]: 150 nM
- TGI [34]: > 25000 nM
- GI50 [35]: 6.54 nM
- TGI [35]: 300 nM
- GI50 [36]: 258 nM
- TGI [36]: > 25000 nM
- GI50 [37]: 36.2 nM
- TGI [37]: > 25000 nM
- GI50 [38]: 34.9 nM
- TGI [38]: 556 nM
- GI50 [39]: 17.5 nM
- TGI [39]: > 25000 nM
- GI50 [40]: 1620 nM
- TGI [40]: > 25000 nM
- GI50 [41]: 21 nM
- TGI [41]: > 25000 nM
- GI50 [42]: 64 nM
- TGI [42]: > 25000 nM
- GI50 [43]: 10.2 nM
- TGI [43]: 63 nM
- GI50 [44]: 492 nM
- TGI [44]: > 25000 nM
- GI50 [45]: 40.3 nM
- TGI [45]: > 25000 nM
- GI50 [46]: 84.4 nM
- TGI [46]: > 25000 nM
- GI50 [47]: 66.9 nM
- TGI [47]: > 25000 nM
- GI50 [48]: 473 nM
- TGI [48]: > 25000 nM
- GI50 [49]: 121 nM
- TGI [49]: > 25000 nM
- GI50 [50]: 2050 nM
- TGI [50]: > 25000 nM
- GI50 [51]: 316 nM
- TGI [51]: > 25000 nM
- GI50 [52]: 32.8 nM
- GI50 [53]: 37.6 nM
- TGI [53]: 194 nM
- GI50 [54]: 247 nM
- TGI [54]: > 25000 nM
- GI50 [55]: 1010 nM
- TGI [55]: > 25000 nM
- GI50 [56]: 45.2 nM
- TGI [56]: > 25000 nM
- GI50 [57]: 69.3 nM
- TGI [57]: 1670 nM
